Key:
[1] = system: BaF3; assay: Antiproliferative activity against mouse BaF3 cells transfected with ETV6-wild type TRKB assessed as cell viability incubated for 72 hrs by CCK8 assay; type: functional, cell-based; details: BaF3, 72 h
[2] = system: BaF3; type: functional, cell-based; details: Mus musculus, BaF3, 72 h
[3] = system: BaF3; type: functional, cell-based; details: Mus musculus, BaF3, 72 h; remark: listed apart in the source
[4] = system: BaF3; assay: Antitumor activity against mouse BAF3 cells harboring TMP3 fused TRKA G595R mutant xenografted in BALB/c nude mouse assessed as tumor growth inhibition at 30 mg/kg, po administered twice daily for 12 to […] consecutive days; type: functional; details: time 12-14 day, read-out: TGI
[5] = system: BaF3; assay: animal or person; type: functional; details: Mus musculus, BaF3, po; dose 100 mg/kg; time 12-14 day; read-out: TGI
[6] = Volume of distribution in Sprague-Dawley rat 1 mg/kg, iv measured upto 24 hrs by LC-MS/MS analysis; type: ADME, organism-based; details: in vivo, read-out: Vz
[7] = Toxicity in BALB/c mouse xenografted with mouse BAF3 cells harboring ETV6 fused TRKC G623R mutant assessed as body weight loss at 15 to 30 mg/kg, po administered twice daily for 12 to 14 consecutive days; type: organism-based; details: in vivo, dose lower 15 mg/kg, time lower 12 day, dose upper 30 mg/kg, time upper 14 day
[8] = Toxicity in BALB/c mouse xenografted with mouse BAF3 cells harboring ETV6 fused TRKC G623R mutant assessed as mortality at 15 to 30 mg/kg, po administered twice daily for 12 to […] consecutive days; type: organism-based; details: in vivo, dose lower 15 mg/kg, time lower 12 day, dose upper 30 mg/kg, time upper 14 day
[9] = AUC(0 to infinity) in Sprague-Dawley rat at 5 mg/kg, ig measured upto 24 hrs by LC-MS/MS analysis; type: ADME, organism-based; parameters: route […], dose 5 mg/kg, time <=24; details: in vivo, po
[10] = Half life in Beagle dog at 1 mg/kg, iv measured upto 24 hrs by LC-MS/MS analysis; type: ADME, organism-based, Canis lupus familiaris; details: in vivo
[11] = Tmax in Beagle dog at 5 mg/kg, ig measured upto 24 hrs by LC-MS/MS analysis; type: ADME, organism-based, Canis lupus familiaris; details: in vivo, po
[12] = Cmax in Beagle dog at 5 mg/kg, ig measured upto 24 hrs by LC-MS/MS analysis; type: ADME, organism-based, Canis lupus familiaris; parameters: route […], dose 5 mg/kg, time <=24; details: in vivo, po
[13] = Volume of distribution in Beagle dog at 5 mg/kg, ig measured upto 24 hrs by LC-MS/MS analysis; type: ADME, organism-based, Canis lupus familiaris; details: in vivo, po
[14] = Plasma protein binding in human; type: ADME, cell-free; details: read-out: PPB (converted)
[15] = molecular target: Voltage-gated inwardly rectifying potassium channel KCNH2 (Homo sapiens, UniProt Q12809); assay: Inhibition of hERG
Chain of Voltage-gated inwardly rectifying potassium channel KCNH2 (Q12809 whole entry): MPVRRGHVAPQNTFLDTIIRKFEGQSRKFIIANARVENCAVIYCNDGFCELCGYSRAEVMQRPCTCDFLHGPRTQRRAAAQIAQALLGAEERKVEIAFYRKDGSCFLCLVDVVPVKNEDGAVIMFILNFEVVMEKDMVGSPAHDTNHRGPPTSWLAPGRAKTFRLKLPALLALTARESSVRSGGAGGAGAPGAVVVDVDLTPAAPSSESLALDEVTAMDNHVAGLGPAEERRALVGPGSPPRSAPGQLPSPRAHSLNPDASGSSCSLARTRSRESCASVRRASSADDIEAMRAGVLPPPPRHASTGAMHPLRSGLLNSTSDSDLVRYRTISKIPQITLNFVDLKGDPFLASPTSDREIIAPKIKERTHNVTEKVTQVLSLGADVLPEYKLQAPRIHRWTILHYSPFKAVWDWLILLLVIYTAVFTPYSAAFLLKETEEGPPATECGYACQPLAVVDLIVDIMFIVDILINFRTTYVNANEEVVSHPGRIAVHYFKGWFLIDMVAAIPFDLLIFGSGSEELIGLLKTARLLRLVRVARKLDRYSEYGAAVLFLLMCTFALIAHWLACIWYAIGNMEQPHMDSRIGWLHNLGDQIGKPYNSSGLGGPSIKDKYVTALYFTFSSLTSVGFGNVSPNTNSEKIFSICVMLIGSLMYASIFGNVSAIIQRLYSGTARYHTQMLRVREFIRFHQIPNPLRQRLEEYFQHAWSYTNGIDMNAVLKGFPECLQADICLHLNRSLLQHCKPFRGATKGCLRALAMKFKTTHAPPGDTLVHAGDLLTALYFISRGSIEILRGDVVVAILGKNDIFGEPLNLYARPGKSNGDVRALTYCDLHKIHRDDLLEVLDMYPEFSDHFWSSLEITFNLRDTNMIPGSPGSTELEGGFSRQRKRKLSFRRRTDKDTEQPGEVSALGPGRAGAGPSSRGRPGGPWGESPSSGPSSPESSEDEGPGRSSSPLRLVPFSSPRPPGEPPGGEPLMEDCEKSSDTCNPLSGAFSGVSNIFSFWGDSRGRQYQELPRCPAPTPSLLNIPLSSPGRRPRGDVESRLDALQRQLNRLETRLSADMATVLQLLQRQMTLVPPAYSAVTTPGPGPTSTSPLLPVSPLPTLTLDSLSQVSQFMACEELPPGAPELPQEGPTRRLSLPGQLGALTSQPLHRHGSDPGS

[16] = Metabolic stability in human liver microsomes assessed as half life at 1 uM measured upto 90 mins in presence of NADPH regenerating system by LC-MS/MS analysis; type: ADME, Microsome
[17] = molecular target: Tyrosine-protein kinase receptor UFO (Homo sapiens) (UniProt P30530); assay: Inhibition of AXL (unknown origin) at 1 uM relative to control
[18] = molecular target: Cytoplasmic tyrosine-protein kinase BMX (Homo sapiens) (UniProt P51813); assay: Inhibition of BMX (unknown origin) at 1 uM relative to control
[19] = molecular target: Calcium/calmodulin-dependent protein kinase type II subunit beta (Homo sapiens) (UniProt Q13554); assay: Inhibition of CAMK2 (unknown origin) at 1 uM relative to control
Chain of Calcium/calmodulin-dependent protein kinase type II subunit beta (Homo sapiens) (Q13554 whole entry): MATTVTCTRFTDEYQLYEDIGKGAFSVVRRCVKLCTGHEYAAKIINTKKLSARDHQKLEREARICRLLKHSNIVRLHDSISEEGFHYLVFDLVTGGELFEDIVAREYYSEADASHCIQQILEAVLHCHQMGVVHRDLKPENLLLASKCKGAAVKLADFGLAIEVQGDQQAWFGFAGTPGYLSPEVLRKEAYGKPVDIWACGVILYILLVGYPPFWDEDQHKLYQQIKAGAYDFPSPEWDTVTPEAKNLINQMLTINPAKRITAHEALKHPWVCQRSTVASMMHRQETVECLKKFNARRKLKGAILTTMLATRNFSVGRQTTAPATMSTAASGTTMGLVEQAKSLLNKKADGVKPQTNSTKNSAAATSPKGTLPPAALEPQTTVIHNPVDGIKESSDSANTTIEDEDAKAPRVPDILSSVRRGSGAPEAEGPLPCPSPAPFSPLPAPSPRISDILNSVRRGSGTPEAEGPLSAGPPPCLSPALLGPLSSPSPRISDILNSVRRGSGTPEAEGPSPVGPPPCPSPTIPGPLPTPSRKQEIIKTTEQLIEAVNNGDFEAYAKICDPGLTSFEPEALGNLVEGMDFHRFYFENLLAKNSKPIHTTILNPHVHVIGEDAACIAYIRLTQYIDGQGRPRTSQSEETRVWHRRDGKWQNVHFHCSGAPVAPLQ

[20] = molecular target: Serine/threonine-protein kinase Chk1 (Homo sapiens) (UniProt O14757); assay: Inhibition of CHK1 (unknown origin) at 1 uM relative to control
[21] = molecular target: Serine/threonine-protein kinase DCLK2 (Homo sapiens) (UniProt Q8N568); assay: Inhibition of DCK2 (unknown origin) at 1 uM relative to control
Chain of Serine/threonine-protein kinase DCLK2 (Homo sapiens) (Q8N568 whole entry): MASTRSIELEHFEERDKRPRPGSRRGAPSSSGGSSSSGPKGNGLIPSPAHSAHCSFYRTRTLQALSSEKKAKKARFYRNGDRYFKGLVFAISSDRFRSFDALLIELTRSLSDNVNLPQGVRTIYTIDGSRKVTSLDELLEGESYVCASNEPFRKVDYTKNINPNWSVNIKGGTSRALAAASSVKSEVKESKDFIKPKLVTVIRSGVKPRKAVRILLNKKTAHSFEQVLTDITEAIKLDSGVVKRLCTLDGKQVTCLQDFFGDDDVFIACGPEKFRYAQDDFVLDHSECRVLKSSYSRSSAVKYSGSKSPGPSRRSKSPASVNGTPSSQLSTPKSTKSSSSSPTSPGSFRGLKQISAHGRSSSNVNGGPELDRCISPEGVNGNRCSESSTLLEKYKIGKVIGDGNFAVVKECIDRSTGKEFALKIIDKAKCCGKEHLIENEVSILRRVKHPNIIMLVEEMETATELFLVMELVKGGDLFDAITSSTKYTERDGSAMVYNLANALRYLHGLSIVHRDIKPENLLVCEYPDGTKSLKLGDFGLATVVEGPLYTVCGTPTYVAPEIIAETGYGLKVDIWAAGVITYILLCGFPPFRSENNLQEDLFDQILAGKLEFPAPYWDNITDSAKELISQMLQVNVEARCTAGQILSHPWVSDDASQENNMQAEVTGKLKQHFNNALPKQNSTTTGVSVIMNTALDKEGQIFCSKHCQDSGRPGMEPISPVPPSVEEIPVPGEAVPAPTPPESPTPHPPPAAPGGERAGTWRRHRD

[22] = molecular target: Focal adhesion kinase 1 (Homo sapiens) (UniProt Q05397); assay: Inhibition of FAK (unknown origin) at 1 uM relative to control
[23] = molecular target: Vascular endothelial growth factor receptor 1 (Homo sapiens) (UniProt P17948); assay: Inhibition of FLT1 (unknown origin) at 1 uM relative to control
[24] = molecular target: Homeodomain-interacting protein kinase 1 (Homo sapiens) (UniProt Q86Z02); assay: Inhibition of HIPK1 (unknown origin) at 1 uM relative to control
Chain of Homeodomain-interacting protein kinase 1 (Homo sapiens) (Q86Z02 whole entry, looked up): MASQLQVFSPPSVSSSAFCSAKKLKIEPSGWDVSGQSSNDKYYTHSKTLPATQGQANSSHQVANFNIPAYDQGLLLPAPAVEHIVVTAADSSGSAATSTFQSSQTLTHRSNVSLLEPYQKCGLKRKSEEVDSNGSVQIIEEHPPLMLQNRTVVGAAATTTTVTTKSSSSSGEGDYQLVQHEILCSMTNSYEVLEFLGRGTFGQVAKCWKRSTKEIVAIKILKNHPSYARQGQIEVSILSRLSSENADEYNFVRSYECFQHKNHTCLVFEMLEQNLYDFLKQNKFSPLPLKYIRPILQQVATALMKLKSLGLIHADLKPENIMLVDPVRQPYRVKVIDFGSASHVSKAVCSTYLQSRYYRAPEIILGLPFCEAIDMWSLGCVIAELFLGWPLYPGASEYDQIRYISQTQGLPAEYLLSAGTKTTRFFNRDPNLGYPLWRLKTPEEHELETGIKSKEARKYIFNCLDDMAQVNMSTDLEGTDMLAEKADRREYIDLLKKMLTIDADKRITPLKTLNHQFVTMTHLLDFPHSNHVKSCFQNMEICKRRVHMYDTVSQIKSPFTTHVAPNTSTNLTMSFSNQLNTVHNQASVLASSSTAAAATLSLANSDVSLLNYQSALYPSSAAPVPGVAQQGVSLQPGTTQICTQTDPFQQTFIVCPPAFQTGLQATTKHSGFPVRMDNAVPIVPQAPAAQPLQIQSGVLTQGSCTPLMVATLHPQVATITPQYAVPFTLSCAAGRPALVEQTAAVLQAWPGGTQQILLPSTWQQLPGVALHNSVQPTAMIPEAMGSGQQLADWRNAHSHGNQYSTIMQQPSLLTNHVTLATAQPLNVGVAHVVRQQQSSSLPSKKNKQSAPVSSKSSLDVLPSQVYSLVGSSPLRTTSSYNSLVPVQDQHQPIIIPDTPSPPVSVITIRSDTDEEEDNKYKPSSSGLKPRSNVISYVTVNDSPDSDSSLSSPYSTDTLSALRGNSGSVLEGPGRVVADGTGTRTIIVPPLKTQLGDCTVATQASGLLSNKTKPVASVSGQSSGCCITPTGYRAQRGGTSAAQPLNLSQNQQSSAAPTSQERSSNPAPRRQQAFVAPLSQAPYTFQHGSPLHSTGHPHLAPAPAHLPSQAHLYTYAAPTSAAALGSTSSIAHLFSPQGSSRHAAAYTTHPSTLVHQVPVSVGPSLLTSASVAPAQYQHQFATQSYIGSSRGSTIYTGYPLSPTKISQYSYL

[25] = molecular target: Vascular endothelial growth factor receptor 2 (Homo sapiens) (UniProt P35968); assay: Inhibition of KDR (unknown origin) at 1 uM relative to control
[26] = molecular target: Mast/stem cell growth factor receptor Kit (Homo sapiens) (UniProt P10721); assay: Inhibition of KIT (unknown origin) at 1 uM relative to control
[27] = molecular target: Maternal embryonic leucine zipper kinase (Homo sapiens) (UniProt Q14680); assay: Inhibition of MELK (unknown origin) at 1 uM relative to control
Chain of Maternal embryonic leucine zipper kinase (Homo sapiens) (Q14680 whole entry, looked up): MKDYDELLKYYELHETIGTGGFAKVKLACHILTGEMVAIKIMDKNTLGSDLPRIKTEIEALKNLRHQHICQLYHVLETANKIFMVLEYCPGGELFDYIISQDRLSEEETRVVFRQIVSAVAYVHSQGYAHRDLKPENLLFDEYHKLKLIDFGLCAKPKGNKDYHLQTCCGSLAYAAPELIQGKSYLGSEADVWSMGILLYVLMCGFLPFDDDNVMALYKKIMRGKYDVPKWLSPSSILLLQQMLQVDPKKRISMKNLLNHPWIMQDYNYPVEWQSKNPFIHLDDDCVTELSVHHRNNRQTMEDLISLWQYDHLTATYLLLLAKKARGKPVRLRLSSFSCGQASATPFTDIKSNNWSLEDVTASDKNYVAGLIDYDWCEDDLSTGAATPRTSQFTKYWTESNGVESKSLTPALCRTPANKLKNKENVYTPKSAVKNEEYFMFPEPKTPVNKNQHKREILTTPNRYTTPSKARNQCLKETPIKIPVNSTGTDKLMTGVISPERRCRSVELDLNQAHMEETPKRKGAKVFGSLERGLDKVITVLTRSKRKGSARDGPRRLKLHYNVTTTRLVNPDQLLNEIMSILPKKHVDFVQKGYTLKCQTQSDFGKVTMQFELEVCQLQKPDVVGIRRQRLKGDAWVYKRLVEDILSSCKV

[28] = molecular target: Serine/threonine-protein kinase mTOR (Homo sapiens) (UniProt P42345); assay: Inhibition of mTOR (unknown origin) at 1 uM relative to control
[29] = molecular target: Serine/threonine-protein kinase Nek6 (Homo sapiens) (UniProt Q9HC98); assay: Inhibition of NEK6 (unknown origin) at 1 uM relative to control
[30] = molecular target: Platelet-derived growth factor receptor alpha (Homo sapiens) (UniProt P16234); assay: Inhibition of PDGFRalpha (unknown origin) at 1 uM relative to control
[31] = molecular target: Serine/threonine-protein kinase pim-1 (Homo sapiens) (UniProt P11309); assay: Inhibition of PIM1 (unknown origin) at 1 uM relative to control
[32] = molecular target: Rho-associated protein kinase 1 (Homo sapiens) (UniProt Q13464); assay: Inhibition of ROCK1 (unknown origin) at 1 uM relative to control
[33] = molecular target: SRSF protein kinase 1 (Homo sapiens) (UniProt Q96SB4); assay: Inhibition of SRPK1 (unknown origin) at 1 uM relative to control
[34] = molecular target: BDNF/NT-3 growth factors receptor (Homo sapiens) (UniProt Q16620); assay: Inhibition of TRKB (unknown origin) at 1 uM relative to control
[35] = molecular target: Tyrosine-protein kinase ZAP-70 (Homo sapiens) (UniProt P43403); assay: Inhibition of ZAP70 (unknown origin) at 1 uM relative to control
Chain of Tyrosine-protein kinase ZAP-70 (Homo sapiens) (P43403 whole entry, the tested form may be a part): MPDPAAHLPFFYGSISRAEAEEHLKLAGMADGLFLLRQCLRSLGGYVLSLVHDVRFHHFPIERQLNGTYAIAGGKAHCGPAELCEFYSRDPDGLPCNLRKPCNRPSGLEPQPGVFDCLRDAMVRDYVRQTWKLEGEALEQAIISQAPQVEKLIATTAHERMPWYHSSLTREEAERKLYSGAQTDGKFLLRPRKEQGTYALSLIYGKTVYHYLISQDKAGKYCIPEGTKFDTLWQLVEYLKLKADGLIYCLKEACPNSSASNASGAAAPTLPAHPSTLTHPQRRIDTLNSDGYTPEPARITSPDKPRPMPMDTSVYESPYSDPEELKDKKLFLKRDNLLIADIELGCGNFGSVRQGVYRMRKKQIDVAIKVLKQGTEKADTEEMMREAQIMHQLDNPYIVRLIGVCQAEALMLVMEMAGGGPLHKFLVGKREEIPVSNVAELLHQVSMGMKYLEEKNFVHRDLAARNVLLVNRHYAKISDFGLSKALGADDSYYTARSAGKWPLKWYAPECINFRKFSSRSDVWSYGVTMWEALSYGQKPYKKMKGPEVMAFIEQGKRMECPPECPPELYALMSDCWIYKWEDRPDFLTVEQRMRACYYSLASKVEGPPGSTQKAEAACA

[36] = Toxicity in BALB/c nude mouse xenografted with mouse BAF3 cells harboring TMP3 fused TRKA G595R mutant assessed as body weight loss at 30 mg/kg, po administered twice daily for 12 to 14 consecutive days; type: organism-based; details: in vivo, time 12-14 day
[37] = Toxicity in BALB/c mouse xenografted with mouse BAF3 cells harboring TMP3 fused wild type TRKA assessed as mortality at 15 mg/kg, po administered twice daily for 12 to […] consecutive days; type: organism-based; details: in vivo, time 12-14 day
[38] = molecular target: High affinity nerve growth factor receptor (Homo sapiens, UniProt P04629)

C[C@@H](Nc1ccn2ncc(-c3cnn(CCO)c3)c2n1)c1cc(F)ccc1OCC(F)F
IC50 [1]: 0.3 nM | IC50 [2]: 10.9 nM | IC50 [3]: 0.2 nM | inhibition in vivo at 30 mg/kg [4]: 61% | inhibition in vivo at 100 mg/kg [5]: 99% | Vd [6]: 40 L/kg | Activity [7]: Non-Toxic | Activity [8]: Non-Toxic | AUC(0-inf) [9]: 540 ng·h/mL | half-life [10]: 7.2 h | Tmax [11]: 0.83 h | Cmax [12]: 1570 ng/mL | Vz [13]: 4.77 L/kg | fraction unbound [14]: 0.044 | IC50 [15]: > 10000 nM | half-life at 1 µM [16]: 5.25 h | inhibition [17]: > 80% | inhibition [18]: > 80% | inhibition [19]: < 50% | inhibition [20]: < 50% | inhibition [21]: < 50% | inhibition [22]: > 80% | inhibition [23]: < 50% | inhibition [24]: < 50% | inhibition [25]: < 50% | inhibition [26]: < 50% | inhibition [27]: < 50% | inhibition [28]: < 50% | inhibition [29]: < 50% | inhibition [30]: < 50% | inhibition [31]: < 50% | inhibition [32]: < 50% | inhibition [33]: < 50% | inhibition [34]: > 80% | inhibition [35]: < 50% | Activity [36]: Non-Toxic | Activity [37]: Non-Toxic | IC50 [38]: 0.7 nM
